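GI50 = concentration required for 50% inhibition of growth. The concentration for full growth arrest is given as TGI.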
Key:
Assay in all cases: NCI tumour cell line growth inhibition, 384-well format
786-0 renal = system: 786-0 renal
A498 renal = system: A498 renal
A549 NSCLC = system: A549 NSCLC
BT-549 breast = system: BT-549 breast
CAKI-1 renal = system: CAKI-1 renal
COLO 205 colon = system: COLO 205 colon
EKVX NSCLC = system: EKVX NSCLC
HCT-116 colon = system: HCT-116 colon
HCT-15 colon = system: HCT-15 colon
HL-60(TB) leukemia = system: HL-60(TB) leukemia
HOP-62 NSCLC = system: HOP-62 NSCLC
HOP-92 NSCLC = system: HOP-92 NSCLC
HT29 colon = system: HT29 colon
IGROV1 ovarian = system: IGROV1 ovarian
KM12 colon = system: KM12 colon
LOX IMVI melanoma = system: LOX IMVI melanoma
M14 melanoma = system: M14 melanoma
MALME-3M melanoma = system: MALME-3M melanoma
MCF7 breast = system: MCF7 breast
MDA-MB-231 breast = system: MDA-MB-231 breast
MDA-MB-435 melanoma = system: MDA-MB-435 melanoma
MDA-MB-468 breast = system: MDA-MB-468 breast
MOLT-4 leukemia = system: MOLT-4 leukemia
NCI-H226 lung = system: NCI-H226 lung
NCI-H23 lung = system: NCI-H23 lung
NCI-H322M lung = system: NCI-H322M lung
NCI-H460 NSCLC = system: NCI-H460 NSCLC
NCI/ADR-RES ovarian = system: NCI/ADR-RES ovarian
OVCAR-3 ovarian = system: OVCAR-3 ovarian
OVCAR-4 ovarian = system: OVCAR-4 ovarian
OVCAR-5 ovarian = system: OVCAR-5 ovarian
PC-3 prostate = system: PC-3 prostate
RPMI-8226 leukemia = system: RPMI-8226 leukemia
SF-268 CNS = system: SF-268 CNS
SF-295 CNS = system: SF-295 CNS
SF-539 CNS = system: SF-539 CNS
SK-MEL-28 melanoma = system: SK-MEL-28 melanoma
SK-MEL-5 melanoma = system: SK-MEL-5 melanoma
SK-OV-3 ovarian = system: SK-OV-3 ovarian
SN12C renal = system: SN12C renal
SNB-19 CNS = system: SNB-19 CNS
SNB-75 CNS = system: SNB-75 CNS
SR leukemia = system: SR leukemia
SW-620 colon = system: SW-620 colon
T-47D breast = system: T-47D breast
U251 glioblastoma = system: U251 glioblastoma
UO-31 renal = system: UO-31 renal

## Cc1cc(Nc2ncc(Cl)c(Nc3ccccc3S(=O)(=O)C(C)C)n2)c(OC(C)C)cc1C1CCNCC1
786-0 renal
  GI50: 1.26 µM
  TGI: 2.52 µM
A498 renal
  GI50: 1.62 µM
  TGI: 2.99 µM
A549 NSCLC
  GI50: 1.4 µM
  TGI: 2.73 µM
BT-549 breast
  GI50: 1.88 µM
  TGI: 3.3 µM
CAKI-1 renal
  GI50: 1.75 µM
  TGI: 3.14 µM
COLO 205 colon
  GI50: 0.663 µM
  TGI: 1.9 µM
EKVX NSCLC
  GI50: 1.29 µM
  TGI: 2.57 µM
HCT-116 colon
  GI50: 0.826 µM
  TGI: 2.07 µM
HCT-15 colon
  GI50: 0.648 µM
  TGI: 1.76 µM
HL-60(TB) leukemia
  GI50: 0.218 µM
  TGI: 0.49 µM
HOP-62 NSCLC
  GI50: 1.71 µM
  TGI: 3.1 µM
HOP-92 NSCLC
  GI50: 1.21 µM
  TGI: 2.45 µM
HT29 colon
  GI50: 0.408 µM
  TGI: 1.46 µM
IGROV1 ovarian
  GI50: 1.27 µM
  TGI: 2.58 µM
KM12 colon
  GI50: 1.45 µM
  TGI: 2.78 µM
LOX IMVI melanoma
  GI50: 1.28 µM
  TGI: 2.56 µM
M14 melanoma
  GI50: 1.27 µM
  TGI: 2.55 µM
MALME-3M melanoma
  GI50: 0.551 µM
  TGI: 1.72 µM
MCF7 breast
  GI50: 0.297 µM
  TGI: 1.3 µM
MDA-MB-231 breast
  GI50: 1.48 µM
  TGI: 2.81 µM
MDA-MB-435 melanoma
  GI50: 1.27 µM
  TGI: 2.55 µM
MDA-MB-468 breast
  GI50: 1.1 µM
  TGI: 2.34 µM
MOLT-4 leukemia
  GI50: 0.711 µM
  TGI: 1.98 µM
NCI-H226 lung
  GI50: 0.929 µM
  TGI: 2.24 µM
NCI-H23 lung
  GI50: 1.27 µM
  TGI: 2.55 µM
NCI-H322M lung
  GI50: 1.32 µM
  TGI: 2.6 µM
NCI-H460 NSCLC
  GI50: 1.08 µM
  TGI: 2.37 µM
NCI/ADR-RES ovarian
  GI50: 1.54 µM
  TGI: 2.89 µM
OVCAR-3 ovarian
  GI50: 1.59 µM
  TGI: 2.96 µM
OVCAR-4 ovarian
  GI50: 1.99 µM
  TGI: 3.42 µM
OVCAR-5 ovarian
  GI50: 1.51 µM
  TGI: 2.85 µM
PC-3 prostate
  GI50: 1.39 µM
  TGI: 2.71 µM
RPMI-8226 leukemia
  GI50: 0.72 µM
  TGI: 1.98 µM
SF-268 CNS
  GI50: 1.7 µM
  TGI: 3.08 µM
SF-295 CNS
  GI50: 1.7 µM
  TGI: 3.09 µM
SF-539 CNS
  GI50: 1.87 µM
  TGI: 3.29 µM
SK-MEL-28 melanoma
  GI50: 1.54 µM
  TGI: 2.88 µM
SK-MEL-5 melanoma
  GI50: 0.668 µM
  TGI: 1.28 µM
SK-OV-3 ovarian
  GI50: 1.75 µM
  TGI: 3.16 µM
SN12C renal
  GI50: 1.75 µM
  TGI: 3.14 µM
SNB-19 CNS
  GI50: 1.83 µM
  TGI: 3.24 µM
SNB-75 CNS
  GI50: 1.86 µM
  TGI: 3.27 µM
SR leukemia
  GI50: 0.0139 µM
  TGI: 0.0261 µM
SW-620 colon
  GI50: 1.06 µM
  TGI: 2.33 µM
T-47D breast
  GI50: 1.4 µM
  TGI: 2.71 µM
U251 glioblastoma
  GI50: 1.78 µM
  TGI: 3.19 µM
UO-31 renal
  GI50: 1.69 µM
  TGI: 3.07 µM
